From ChEMBL document CHEMBL1121597, “Synthesis and some pharmacological properties of [8-L-tryptophan]oxytocin” (1980)
Positions of bridges follow the written chain, without caps; N, C: chain ends. Residues, ends and D or L forms follow the SMILES beside them.

How the values were obtained:
Rattus norvegicus [1] = assay: Compound was evaluated for the intrauterine pressure assayed by intravenous injection into anesthetized rats pretreated with diethylstilbestrol; type: functional
Rattus norvegicus [2] = assay: Compound was evaluated for the vasopressor activity when injected intravenously into anesthetized rats pretreated with phenoxybenzamine; type: functional

CC[C@H](C)[C@@H]1NC(=O)[C@H](Cc2ccc(O)cc2)NC(=O)[C@@H](N)CSSC[C@@H](C(=O)N2CCC[C@H]2C(=O)N[C@@H](Cc2c[nH]c3ccccc23)C(=O)NCC(N)=O)NC(=O)[C@H](CC(N)=O)NC(=O)[C@H](CCC(N)=O)NC1=O (H-CYIQNCPWG-NH2; disulfide 1-6)
Activity (Rattus norvegicus [1]): 50 U mg-1 | Activity (Rattus norvegicus [2]): <0.25 U mg-1
